Assay results taken from patent US20060052435A1, “Selective dopamin d3 receptor agonists for the treatment of sexual dysfunction” (priority 2001, published 2006).

Legend:
conscious rats = experiment: conscious rat models of copulatory behaviour; details: in vivo
Description: All studies of sexual behaviour must be performed on adult rats (˜12 weeks of age/200 g weight). Sexual behaviour tests are performed under red light during the dark phase of the light/dark cycle starting at 2 h after lights off and videotaped for further analysis (observer presence can unfavourably alter sexual behaviour).
Males (N=8-10) are placed in a clear aquarium (or home cage) for at least 15 min acclimation period. An estrous female is introduced into the mating arena. The following information is recorded during the 45 min test: latency to begin mounting behaviour, latency to first intromission, latency to first ejaculation (calculated from first intromission), number of intromissions to ejaculation, number of mounts until ejaculation, and the number of ejaculations during the test period. Males are observed during a single 45 min test with an estrous WT female.
The rats are presented with a receptive female at […], i.e. every third day (having 2 clear days between presentations), until completing at least 6 days of baseline determination. By then, vigorous behaviour should be expected. Rats that display sluggish copulatory behaviour are used as a model of HSDD.
For all the sexual behaviour tests, the males are placed in an observation arena (50-60 cm diameter for rats). 3 to 4 minutes after placing the male in the arena, a receptive female (ovariectomised, bearing a 7 mm silastic implant of oestradiol benzoate gives the best results without complications) is introduced to the arena and the following parameters noted:
Mount Latency: time (in seconds) taken between introduction of female and first mount. A maximum time of 15 minutes (900 seconds) is allowed, and the test terminated if no mounts are recorded within that time. Mount latency is related to sexual drive/desire.
Intromission Latency: time (in seconds) taken between introduction of female and first intromission. A maximum time of 15 minutes (900 seconds) is allowed, and the test terminated if no intromissions are recorded within that time. Intromission latency is related to sexual drive/desire.
Copulatory effectsiveness:—no of intromissions/(no of mounts+intromissions). This acts as a measure of erectile function.
The test, in the rat, is carried out in a circular arena of 90 cm diameter surrounded by a 30 cm high wall (these dimensions would need to be adapted for mice). Two small cages with wire-mesh front (15×15 cm) are fixed into the wall such that the front of the cage is “flush” with the wall and the 2 cages are opposite each other. […] The difference in the percentage of time spent investigating male minus female is calculated, out of the total time spent investigating stimuli animals. […] Female rats would then be used intact and tested in late proestrous, as determined by vaginal smears. […]

[1] = emesis in the chloralose anaesthetised dog; details: male, beagle, dog, in vivo, 3000 μg kg^−1
Description: (§1) Male beagles, 11-17 kg were used. Following an overnight fast, animals were anaesthetised with chloralose (80 mg kg^−1 i.v.), having first been injected with an anaesthetic dose of the short acting barbiturate, thiopentone (15 mg kg^−1 i.v.). Following tracheal intubation, which ensured a patent airway even during the expulsion phase of the emetic response, the left femoral vein and artery were cannulated for further administration of anaesthetic and for recording haemodynamic parameters, respectively. […] During the stabilisation period, respiratory rate was monitored to ensure that central respiratory centres were not deeply depressed, since the CNS efferent component of the emetic reflex is essentially conveyed via respiratory motor neurones. […] Animals were observed closely for 30 min post-dose and motor (e.g. swallowing, eye blinking, limb movements, changes in respiratory rate and depth, retching and vomiting) and haemodynamic changes noted and recorded. […] At the end of an experiment animals were sacrificed with an overdose of pentobarbitone.
(§2) Observations made on individual animals were used to determine the percentage of animals that retched when injected with a particular dose level of test compound. Percentage of animals retching was then used to construct a dose response curve and an ED50 value determined from the appropriate curve.

anaesthetised dog = experiment: emesis in the chloralose anaesthetised dog
Description: as §1, §2

[2] = molecular target: human dopamine D2 long receptor (Homo sapiens, UniProt P14416)
Chain of human dopamine D2 long receptor (P14416 whole entry): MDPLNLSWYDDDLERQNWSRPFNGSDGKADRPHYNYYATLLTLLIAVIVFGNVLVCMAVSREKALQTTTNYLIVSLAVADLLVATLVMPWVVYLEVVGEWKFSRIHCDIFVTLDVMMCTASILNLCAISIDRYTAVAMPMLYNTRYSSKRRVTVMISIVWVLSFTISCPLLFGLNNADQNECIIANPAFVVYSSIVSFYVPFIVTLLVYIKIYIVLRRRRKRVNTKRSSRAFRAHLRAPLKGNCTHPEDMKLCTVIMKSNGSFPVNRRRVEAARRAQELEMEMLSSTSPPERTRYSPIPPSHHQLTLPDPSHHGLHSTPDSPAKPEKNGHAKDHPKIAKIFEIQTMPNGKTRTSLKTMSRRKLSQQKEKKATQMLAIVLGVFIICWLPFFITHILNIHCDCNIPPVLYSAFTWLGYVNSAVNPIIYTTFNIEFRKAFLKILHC

## CCCN1CCO[C@H](c2cccc(O)c2)C1.Cl [Example 8, R-(−)-3-(4-Propylmorpholin-2-yl)phenol hydrochloride]
Conscious rats
  copulatory behaviour and copulatory effectiveness in male rats: beneficially enhances
  mount latency and intromission latency in sluggish males (model of HSDD): reduces
  proceptive and receptive behaviours in female rats: beneficially enhances
  sexual desire in oestrogen primed ovarectomised animals (model of HSDD): restores
[1]
  concentration at 15 min: ~1000 nM
Anaesthetised dog; at 3000 μg/kg, emesis study
  free plasma concentration relative to the D3 EC50: approximately 270 fold
Anaesthetised dog; s.c., escalating doses 3-3000 μg kg^−1
  dose at which emesis was observed: > 3 mg/kg
[2]
  EC50: 4.97 µM
